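Protocol summary: plate cells (96-well), add compound at 5 concentrations, incubate 48 h, interpolate endpoints linearly. At the GI50, growth is halved.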 The source made the active and inactive calls. Cut-off read from the data, not from the text of the source: active = GI50 up to about 1.1 µM and inactive = higher.
Columns and labels:
Test in all cases: inhibition of tumour cell growth, NCI panel, 48 h
OVCAR-3 = tested on: OVCAR-3
TK-10 = tested on: TK-10
NCI-H226 = tested on: NCI-H226
ACHN = tested on: ACHN
UO-31 = tested on: UO-31
CCRF-CEM = tested on: CCRF-CEM
786-0 = tested on: 786-0
NCI-H522 = tested on: NCI-H522
MOLT-4 = tested on: MOLT-4
UACC-257 = tested on: UACC-257
SK-MEL-5 = tested on: SK-MEL-5
SF-539 = tested on: SF-539
SF-295 = tested on: SF-295
CAKI-1 = tested on: CAKI-1
UACC-62 = tested on: UACC-62
MDA-MB-435 = tested on: MDA-MB-435
HCT-15 = tested on: HCT-15
EKVX = tested on: EKVX
NCI-H23 = tested on: NCI-H23
RXF 393 = tested on: RXF 393

SMILES | GI50 (OVCAR-3) | GI50 (TK-10) | GI50 (NCI-H226) | GI50 (ACHN) | GI50 (UO-31) | GI50 (CCRF-CEM) | GI50 (786-0) | GI50 (NCI-H522) | GI50 (MOLT-4) | GI50 (UACC-257) | GI50 (SK-MEL-5) | GI50 (SF-539) | GI50 (SF-295) | GI50 (CAKI-1) | GI50 (UACC-62) | GI50 (MDA-MB-435) | GI50 (HCT-15) [µM] | GI50 (EKVX) | GI50 (NCI-H23) | GI50 (RXF 393)
O=C(CCCn1ccnc1[N+](=O)[O-])NCCn1cnc([N+](=O)[O-])c1 | > 100 µM (inactive) | > 100 µM (inactive) | > 100 µM (inactive) | > 100 µM (inactive) | > 100 µM (inactive) | > 100 µM (inactive) | > 100 µM (inactive) | > 100 µM (inactive) | > 100 µM (inactive) | > 100 µM (inactive) | > 100 µM (inactive) | > 100 µM (inactive) | > 100 µM (inactive) | > 100 µM (inactive) | > 100 µM (inactive) | > 100 µM (inactive) | > 100 | > 100 µM (inactive) | > 100 µM (inactive) | 
Nc1c(C(=O)O)nnc2ccc(Cl)cc12 | > 100 µM (inactive) | > 100 µM (inactive) | 41.8 µM (inactive) | > 100 µM (inactive) | 94.8 µM (inactive) | > 100 µM (inactive) | > 100 µM (inactive) | > 100 µM (inactive) | > 100 µM (inactive) | > 100 µM (inactive) | > 100 µM (inactive) | > 100 µM (inactive) | > 100 µM (inactive) | > 100 µM (inactive) | > 100 µM (inactive) | > 100 µM (inactive) | > 100 | > 100 µM (inactive) | > 100 µM (inactive) | 
CCOC(=O)c1ccc(C(=O)/C(C#N)=C2\CCCN2)n1C | 68.4 µM (inactive) |  | 79.1 µM (inactive) | > 100 µM (inactive) | > 100 µM (inactive) | > 100 µM (inactive) | > 100 µM (inactive) | 95.7 µM (inactive) | 13.6 µM (inactive) |  | 33.6 µM (inactive) |  | > 100 µM (inactive) | > 100 µM (inactive) | > 100 µM (inactive) | 31.2 µM (inactive) | 76.4 | > 100 µM (inactive) | 97.5 µM (inactive) | 25.7 µM (inactive)
CCCOC(=O)c1cc(C(=CCC[C@H]2CC[C@@]3(C)[C@@H](CC[C@@H]4[C@@H]3CC[C@]3(C)[C@@H](C(C)CCCC(C)C)CC[C@@H]43)C2)c2cc(Cl)c(O)c(C(=O)OCCC)c2)cc(Cl)c1O (some centres undefined) | > 50 µM (inactive) |  | > 50 µM (inactive) |  |  | > 50 µM (inactive) | > 50 µM (inactive) |  | > 50 µM (inactive) |  | > 50 µM (inactive) |  |  | > 50 µM (inactive) | > 50 µM (inactive) | > 50 µM (inactive) | > 50 | > 50 µM (inactive) | > 50 µM (inactive) | 
CCOc1ncn(-c2ccc(NC(=S)NC3OC(CO)C(O)C(O)C3O)cc2)n1 (centres undefined) | > 100 µM (inactive) | > 100 µM (inactive) |  |  | > 100 µM (inactive) | > 100 µM (inactive) | > 100 µM (inactive) | > 100 µM (inactive) | > 100 µM (inactive) | > 100 µM (inactive) | > 100 µM (inactive) | > 100 µM (inactive) | > 100 µM (inactive) |  | > 100 µM (inactive) | > 100 µM (inactive) | > 100 | > 100 µM (inactive) | > 100 µM (inactive) | 
C=CC1CCC[N+]1(CC(=O)OCC)Cc1ccccc1 (centres undefined) | > 100 µM (inactive) | > 100 µM (inactive) | > 100 µM (inactive) | > 100 µM (inactive) | > 100 µM (inactive) | > 100 µM (inactive) | > 100 µM (inactive) |  | > 100 µM (inactive) | > 100 µM (inactive) | > 100 µM (inactive) |  | > 100 µM (inactive) |  | > 100 µM (inactive) | > 100 µM (inactive) | > 100 | > 100 µM (inactive) | > 100 µM (inactive) | 
